Results from patent US9952300B2, “Dynamic contrast enhanced MRI method and agents for the assessment of the macromolecular transport within pathologic tissues” (BRACCO IMAGING S.P.A., priority 2012, dated 2018).
Values joined by “and” are separate entries in the source; they are usually repeats but may differ in a detail not shown here. Identical values can stand only once.

What was measured:
[1] = system: PC-3 human prostate adenocarcinoma tumor; assay: DCE-MRI of contrast agent kinetics in PC-3 tumors of Axitinib- or vehicle-treated mice (Example 3); assay type: in vivo, NCR athymic nude mice; details: contrast agent 100 μmol/kg i.v., one value per animal, trisodium salt
Source text: The comparative test has been performed using NCR athymic nude mice implanted with PC-3 cells (a human prostate cancer line) and treated with Axitinib®, a VEGFRs inhibitor, (to modulate the tumor vascular permeability) by a protocol which timing is for instance schematized in FIG. 1. Scope of the test was to compare the image-based analysis of the albumin distribution in a human tumor model as extracted from the analysis of a time-serie of MRI images (with spatial resolution of around 110 μm) acquired with the method of the invention after injection of B22956/1 as contrast agent, and the distribution of FITC-BSA (Fluorescent isothiocyanate Bovine Serum Albumin) albumin inside and outside vessels histologically determined from fluorescent microscopy images on a scale of microns.
In particular, the trans-endothelial permeability (K^Trans) and the fractional plasma volume (fPV) were calculated from dynamic MR data by application of a bi-compartmental pharmacokinetic model, while the Initial Area Under the Curve (IAUCT) was calculated in several time windows, typically comprised between the contrast agent administration and the end of the MRI acquisition. The macromolecular penetration in tumors was, then, probed by fluorescently labelled Bovine Serum Albumin administered via tail vein after the last MRI session. Microscopic images were used to quantify the percentage of area stained by fluorescent albumin in the tumor, as a measure of the blood vessel density, using an automatic thresholding method. The albumin extravasation in the tumor extravascular space was assessed based on the fluorescence found out of the blood vessels from histological samples taken from both of tumor rim and core, for instance as schematized in FIG. 2. In particular, the albumin florescence was averaged over all pixels at a given distance from the nearest vessel and stored as a function of distance from the vessels walls, by use of an optimized procedure, for instance schematized in FIG. 3, providing both a quantification of the availability of the albumin in the extravascular space of the concerned tumor, namely the amount of the extravasated FITC-Albumin, and the decay of its concentration over the distance x from a nearest vessel, or, in other words, its actual distribution and dilution within the extracellular spaces (for instance as schematized in FIG. 4).
Human prostate adenocarcinoma cells (PC-3) were supplied by ATCC (American Type Culture Collection) and grown in Hams F-12 medium supplemented with 10% foetal bovine serum, 2 mM glutamine, 100 IU/mL penicillin and 100 μg/mL streptomycin (all from Lonza, Verviers, Belgium). […] Tumour development was followed by palpation and measured by calliper every 2-3 days until the end of the experiment. […]

[2] = system: WM1552/5 melanoma xenografts; assay: DCE-MRI with B22956/1 in WM1552/5 melanoma xenografts 24 h after PTX (Example 4); assay type: in vivo, NCr-nu/nu mice; details: WM1552/5 tumor rim and core, 24 h after PTX 20 mg/kg i.v.
Source text: Indeed, the potential of non-covalent protein binding contrast agents according the invention to provide in vivo suitable estimates of the effect promoted by a therapeutic agent such as, for instance, an EPR-enhancing agent, i.e. an agent devoted to enhance the uptake of the co-administered macromolecular drug in the tumor area, has been investigated by means of Dynamic Contrast Enhanced MRI tests performed in vivo with B22956/1, used as representative agent according to the invention, on melanoma cancer model xenografts in nude mice treated with vehicle or Paclitaxel (PTX). […] Jain, R. K. & Stylianopoulos, T. Nat. Rev. Clin. Oncol. 2010, 7: 653-664).
Six- to eight-week-old female NCr-nu/nu mice, obtained from Harlan (Correzzana, Italy) were maintained under specific pathogen-free conditions and handled using aseptic procedures throughout the whole study. […]
PTX- and vehicle-treated nude mice bearing WM1552/5 melanoma xenografts (N=4 mice per group) were analyzed by DCE-MRI 24 h after PTX administration. […] Pre-contrast T1 values in tumors were measured using a multislice variable flip-angle FLASH. […]
Differences in the kinetics of distribution of the contrast agent (DCE-MRI) were analyzed by Mann Whitney U test.

For C[C@H](CCC(=O)[O-])[C@H]1CC[C@H]2[C@@H]3CC[C@@H]4C[C@@H](NC(=O)CC[C@@H](C(=O)[O-])N(CCN(CC(=O)[O-])CC(=O)[O-])CCN(CC(=O)[O-])CC(=O)[O-])CC[C@]4(C)[C@H]3C[C@H](O)[C@]12C.[Gd+3].[Na+].[Na+].[Na+] [B22956/1, Gadocoletic acid trisodium salt], the “kTrans (Transfer Constant)” value ([1]; tumor core) was 1.09 mL\(min × g) × 100 and 0.98 mL\(min × g) × 100 (2×) and 0.40 mL\(min × g) × 100 (2×) and 1.81 mL\(min × g) × 100 and 0.31 mL\(min × g) × 100 and 0.95 mL\(min × g) × 100 and 0.44 mL\(min × g) × 100 and 1.77 mL\(min × g) × 100 and 1.82 mL\(min × g) × 100 and 1.57 mL\(min × g) × 100 and 1.29 mL\(min × g) × 100 and 1.85 mL\(min × g) × 100 and 1.20 mL\(min × g) × 100 and the “kTrans (Transfer Constant)” value ([1]; tumor rim) was 2.45 mL\(min × g) × 100 and 1.91 mL\(min × g) × 100 (2×) and 0.83 mL\(min × g) × 100 and 2.30 mL\(min × g) × 100 and 1.06 mL\(min × g) × 100 and 1.76 mL\(min × g) × 100 and 1.33 mL\(min × g) × 100 and 3.00 mL\(min × g) × 100 and 1.68 mL\(min × g) × 100 and 2.77 mL\(min × g) × 100 and 2.15 mL\(min × g) × 100 and 2.37 mL\(min × g) × 100 and 1.17 mL\(min × g) × 100 and 3.22 mL\(min × g) × 100 and 2.24 mL\(min × g) × 100.

For CC(=O)O[C@H]1C(=O)[C@@]2(C)[C@H]([C@H](OC(=O)c3ccccc3)[C@]3(O)C[C@H](OC(=O)[C@H](O)[C@@H](NC(=O)c4ccccc4)c4ccccc4)C(C)=C1C3(C)C)[C@]1(OC(C)=O)CO[C@@H]1C[C@@H]2O [PTX, Paclitaxel], the “K^trans measured with B22956/1, pre-treated versus vehicle” value [2] was “statistically significant increase” and the “fractional plasma volume fPV (%) measured with B22956/1, pre-treated versus vehicle” value [2] was “statistically significant increase”.
